Assay results published in US12479843B2, “Spiro ring-containing quinazoline compounds” (WIGEN BIOMEDICINE TECHNOLOGY (SHANGHAI) CO., LTD., priority 2019, dated 2025).

Test system: not listed separately
Experiment: Pharmacokinetic evaluation in mice
Type: in vivo, male ICR mice
Details: male, ICR, mouse, plasma, iv, 2 mg/kg
Procedure: The compounds were administered by intravenous injection at a dose of 2 mg/kg and oral gavage at a dose of 10 mg/kg (0.5% CMC-Na suspension). 15 male ICR mice were selected for each group, and each mouse was subjected to blood collection at 3 discrete time points, with 3 mice per time point. The time points of sampling were as follows: before the administration, and at 5 min, 15 min, 30 min, 1 h, 3 h, 5 h, 8 h, 12 h and 24 h after the administration. 80 μL of blood was collected from the eye sockets or the hearts of the mice at each of the time points after the administration. All whole blood samples were collected in tubes containing EDTA K2 and centrifuged (1500-1600 rmp) at 4° C. for 10 min to isolate plasma, which was then stored in a refrigerator at −90 to −60° C. for sample analysis. The compound concentration in the plasma was determined by liquid chromatography-tandem mass spectrometry, and the corresponding pharmacokinetic parameters were obtained according to a plasma concentration-time curve.

AUC(0-t) [ng·h/mL]	clearance [mL/min/kg]	half-life [h]	SMILES
7820	4.2	4.47	C=CC(=O)N1CC2(CCN(c3nc(OC4CCN(CCOC)CC4)nc4c(OCC(F)(F)F)c(-c5c(C)ccc6[nH]ncc56)c(C5CC5)cc34)CC2)C1 [B, reference compound]
11300	1.87	4.12	C=CC(=O)N1CC2(CCN(c3nc(OC4CC5(CCN(CCOC)CC5)C4)nc4c(OCC(F)(F)F)c(-c5c(C)ccc6[nH]ncc56)c(C5CC5)cc34)CC2)C1 [Compound 131]
26500	1.26	4.85	C=CC(=O)N1CC2(CCN(c3nc(N4CC(N5CCCC5)C4)nc4c(OCC(F)(F)F)c(-c5c(C)ccc6[nH]ncc56)c(C5CC5)cc34)CC2)C1 [Compound 171]

Same assay, conditions: male, ICR, mouse, plasma, iv, 2 mg/kg, read-out: Cmax

Cmax [ng/mL]	SMILES
2880	C=CC(=O)N1CC2(CCN(c3nc(OC4CCN(CCOC)CC4)nc4c(OCC(F)(F)F)c(-c5c(C)ccc6[nH]ncc56)c(C5CC5)cc34)CC2)C1 [B, reference compound]
2350	C=CC(=O)N1CC2(CCN(c3nc(OC4CC5(CCN(CCOC)CC5)C4)nc4c(OCC(F)(F)F)c(-c5c(C)ccc6[nH]ncc56)c(C5CC5)cc34)CC2)C1 [Compound 131]
4910	C=CC(=O)N1CC2(CCN(c3nc(N4CC(N5CCCC5)C4)nc4c(OCC(F)(F)F)c(-c5c(C)ccc6[nH]ncc56)c(C5CC5)cc34)CC2)C1 [Compound 171]

Same assay, conditions: male, ICR, mouse, plasma, iv, 2 mg/kg, read-out: Tmax

Tmax [h]	SMILES
0.083	C=CC(=O)N1CC2(CCN(c3nc(OC4CCN(CCOC)CC4)nc4c(OCC(F)(F)F)c(-c5c(C)ccc6[nH]ncc56)c(C5CC5)cc34)CC2)C1 [B, reference compound]
0.5	C=CC(=O)N1CC2(CCN(c3nc(OC4CC5(CCN(CCOC)CC5)C4)nc4c(OCC(F)(F)F)c(-c5c(C)ccc6[nH]ncc56)c(C5CC5)cc34)CC2)C1 [Compound 131]
0.083	C=CC(=O)N1CC2(CCN(c3nc(N4CC(N5CCCC5)C4)nc4c(OCC(F)(F)F)c(-c5c(C)ccc6[nH]ncc56)c(C5CC5)cc34)CC2)C1 [Compound 171]

Same assay, conditions: male, ICR, mouse, plasma, iv, 2 mg/kg, read-out: Vss

Vd [L/kg]	SMILES
1.01	C=CC(=O)N1CC2(CCN(c3nc(OC4CCN(CCOC)CC4)nc4c(OCC(F)(F)F)c(-c5c(C)ccc6[nH]ncc56)c(C5CC5)cc34)CC2)C1 [B, reference compound]
2.1	C=CC(=O)N1CC2(CCN(c3nc(OC4CC5(CCN(CCOC)CC5)C4)nc4c(OCC(F)(F)F)c(-c5c(C)ccc6[nH]ncc56)c(C5CC5)cc34)CC2)C1 [Compound 131]
0.505	C=CC(=O)N1CC2(CCN(c3nc(N4CC(N5CCCC5)C4)nc4c(OCC(F)(F)F)c(-c5c(C)ccc6[nH]ncc56)c(C5CC5)cc34)CC2)C1 [Compound 171]

Same assay, conditions: male, ICR, mouse, plasma, po, 10 mg/kg, 0.5% CMC-Na suspension

AUC(0-t) [ng·h/mL]	half-life [h]	SMILES
10300	3.74	C=CC(=O)N1CC2(CCN(c3nc(OC4CCN(CCOC)CC4)nc4c(OCC(F)(F)F)c(-c5c(C)ccc6[nH]ncc56)c(C5CC5)cc34)CC2)C1 [B, reference compound]
22300	5.86	C=CC(=O)N1CC2(CCN(c3nc(OC4CC5(CCN(CCOC)CC5)C4)nc4c(OCC(F)(F)F)c(-c5c(C)ccc6[nH]ncc56)c(C5CC5)cc34)CC2)C1 [Compound 131]
35700	3.93	C=CC(=O)N1CC2(CCN(c3nc(N4CC(N5CCCC5)C4)nc4c(OCC(F)(F)F)c(-c5c(C)ccc6[nH]ncc56)c(C5CC5)cc34)CC2)C1 [Compound 171]

Same assay, conditions: male, ICR, mouse, plasma, po, 10 mg/kg, 0.5% CMC-Na suspension, read-out: Cmax

Cmax [ng/mL]	SMILES
1300	C=CC(=O)N1CC2(CCN(c3nc(OC4CCN(CCOC)CC4)nc4c(OCC(F)(F)F)c(-c5c(C)ccc6[nH]ncc56)c(C5CC5)cc34)CC2)C1 [B, reference compound]
1820	C=CC(=O)N1CC2(CCN(c3nc(OC4CC5(CCN(CCOC)CC5)C4)nc4c(OCC(F)(F)F)c(-c5c(C)ccc6[nH]ncc56)c(C5CC5)cc34)CC2)C1 [Compound 131]
3320	C=CC(=O)N1CC2(CCN(c3nc(N4CC(N5CCCC5)C4)nc4c(OCC(F)(F)F)c(-c5c(C)ccc6[nH]ncc56)c(C5CC5)cc34)CC2)C1 [Compound 171]

Same assay, conditions: male, ICR, mouse, plasma, po, 10 mg/kg, 0.5% CMC-Na suspension, read-out: Tmax

Tmax [h]	SMILES
2	C=CC(=O)N1CC2(CCN(c3nc(OC4CCN(CCOC)CC4)nc4c(OCC(F)(F)F)c(-c5c(C)ccc6[nH]ncc56)c(C5CC5)cc34)CC2)C1 [B, reference compound]
2	C=CC(=O)N1CC2(CCN(c3nc(OC4CC5(CCN(CCOC)CC5)C4)nc4c(OCC(F)(F)F)c(-c5c(C)ccc6[nH]ncc56)c(C5CC5)cc34)CC2)C1 [Compound 131]
2	C=CC(=O)N1CC2(CCN(c3nc(N4CC(N5CCCC5)C4)nc4c(OCC(F)(F)F)c(-c5c(C)ccc6[nH]ncc56)c(C5CC5)cc34)CC2)C1 [Compound 171]

Same assay, conditions: po 10 mg/kg vs iv 2 mg/kg

F [%]	SMILES
26.5	C=CC(=O)N1CC2(CCN(c3nc(OC4CCN(CCOC)CC4)nc4c(OCC(F)(F)F)c(-c5c(C)ccc6[nH]ncc56)c(C5CC5)cc34)CC2)C1 [B, reference compound]
39.4	C=CC(=O)N1CC2(CCN(c3nc(OC4CC5(CCN(CCOC)CC5)C4)nc4c(OCC(F)(F)F)c(-c5c(C)ccc6[nH]ncc56)c(C5CC5)cc34)CC2)C1 [Compound 131]
26.9	C=CC(=O)N1CC2(CCN(c3nc(N4CC(N5CCCC5)C4)nc4c(OCC(F)(F)F)c(-c5c(C)ccc6[nH]ncc56)c(C5CC5)cc34)CC2)C1 [Compound 171]

Test system: pERK level in H358 cells
Experiment: pERK and ERK protein content assay in H358 cells (ELISA)
Type: cell-based
Details: Homo sapiens, NCI-H358, compound 1 μM, 24 h, pERK/ERK ratio compared with DMSO group, read-out: Inhibition rate (%) of pERK level
In short: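 H358 cells grown one day, then treated 24 h with compound at 1 μM. pERK and ERK in lysates measured by ELISA; pERK/ERK ratio expressed as percent inhibition versus DMSO.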

SMILES	inhibition at 1 µM [%]
C=CC(=O)N1CC2(CCN(c3nc(OC4CCN(CCOC)CC4)nc4c(OCC(F)(F)F)c(-c5c(C)ccc6[nH]ncc56)c(C5CC5)cc34)CC2)C1 [B, reference compound]	> 90
C=CC(=O)N1CC2(CCN(c3nc(OC4CC5(CCN(CCOC)CC5)C4)nc4c(OCC(F)(F)F)c(-c5c(C)ccc6[nH]ncc56)c(C5CC5)cc34)CC2)C1 [Compound 131]	> 90
C=CC(=O)N1CC2(CCN(c3nc(N4CC(N5CCCC5)C4)nc4c(OCC(F)(F)F)c(-c5c(C)ccc6[nH]ncc56)c(C5CC5)cc34)CC2)C1 [Compound 171]	> 90

Test system: H358 cells
Experiment: Antiproliferative activity against H358 cells (Cell Titer Glow, ultra-low attachment plate)
Type: cell-based
Details: Homo sapiens, NCI-H358, 72 h, 96-well ultra-low attachment plate, three days after addition of compound, Cell Titer Glow
Procedure: 2500 H358 cells were seeded in a 96-well ultra-low attachment plate (corning, 7007). After one day of growth, a serially diluted compound (a maximum concentration of 5 μM, 5-fold dilution, a total of five doses) was added. Three days after the addition of the compound, Cell Titer Glow (Promega, G9681) was added to evaluate pellet growth, and the IC50 value was calculated.

IC50 [nM]	SMILES
< 300	C=CC(=O)N1CC2(CCN(c3nc(OC4CCN(CCOC)CC4)nc4c(OCC(F)(F)F)c(-c5c(C)ccc6[nH]ncc56)c(C5CC5)cc34)CC2)C1 [B, reference compound]
< 300	C=CC(=O)N1CC2(CCN(c3nc(OC4CC5(CCN(CCOC)CC5)C4)nc4c(OCC(F)(F)F)c(-c5c(C)ccc6[nH]ncc56)c(C5CC5)cc34)CC2)C1 [Compound 131]
< 300	C=CC(=O)N1CC2(CCN(c3nc(N4CC(N5CCCC5)C4)nc4c(OCC(F)(F)F)c(-c5c(C)ccc6[nH]ncc56)c(C5CC5)cc34)CC2)C1 [Compound 171]

Same assay, conditions: Homo sapiens, NCI-H358, 72 h, three days after addition of compound

IC50 [nM]	SMILES
4.6	C=CC(=O)N1CC2(CCN(c3nc(OC4CCN(CCOC)CC4)nc4c(OCC(F)(F)F)c(-c5c(C)ccc6[nH]ncc56)c(C5CC5)cc34)CC2)C1 [B, reference compound]
1.5	C=CC(=O)N1CC2(CCN(c3nc(OC4CC5(CCN(CCOC)CC5)C4)nc4c(OCC(F)(F)F)c(-c5c(C)ccc6[nH]ncc56)c(C5CC5)cc34)CC2)C1 [Compound 131]
1.4	C=CC(=O)N1CC2(CCN(c3nc(N4CC(N5CCCC5)C4)nc4c(OCC(F)(F)F)c(-c5c(C)ccc6[nH]ncc56)c(C5CC5)cc34)CC2)C1 [Compound 171]

Test system: Human pancreatic cancer Mia PaCa-2 cells
Experiment: Antitumor activity on graft tumors of human pancreatic cancer Mia PaCa-2 in nude mice
Type: in vivo
Details: Mia PaCa-2 graft tumors in nude mice, 10 mg/kg intragastric, qd*21
Procedure: Human pancreatic cancer Mia PaCa-2 cells were cultured conventionally in 1640 medium containing 10% fetal bovine serum in a 37° C./5% CO2 incubator. After passage, the cells were collected when they reached the desired amount. 1×10^7 Mia PaCa-2 cells were injected into the left dorsal side of each nude mouse, and the animals were randomly grouped for administration after tumors grew to 150 mm3. The groups are as follows: 1) a solvent control group of 8 mice; and 2) compound 1 group, compound 2 group, compound 5 group, compound 31 group, compound 131 group, compound 142 group, compound 171 group, compound B group and compound C group, with 8 mice per group. Mice in the solvent control group were subjected to intragastric administration of 0.5% CMC-Na once daily; mice in compound 1 group, compound 2 group, compound 5 group, compound 31 group, compound 131 group, compound 142 group, compound 171 group, compound B group and compound C group were subjected to intragastric administration of a suspension of a compound in 0.5% CMC-Na once daily. On Tuesday and Thursday each week, tumor volumes and body weight of the mice were measured, and the nude mice were sacrificed on day 21 of administration.

SMILES	Anti-tumor effect (regression) [% regression]
C=CC(=O)N1CC2(CCN(c3nc(OC4CCN(CCOC)CC4)nc4c(OCC(F)(F)F)c(-c5c(C)ccc6[nH]ncc56)c(C5CC5)cc34)CC2)C1 [B, reference compound]	25
C=CC(=O)N1CC2(CCN(c3nc(OC4CC5(CCN(CCOC)CC5)C4)nc4c(OCC(F)(F)F)c(-c5c(C)ccc6[nH]ncc56)c(C5CC5)cc34)CC2)C1 [Compound 131]	37
C=CC(=O)N1CC2(CCN(c3nc(N4CC(N5CCCC5)C4)nc4c(OCC(F)(F)F)c(-c5c(C)ccc6[nH]ncc56)c(C5CC5)cc34)CC2)C1 [Compound 171]	38
